System: fibroblast L929 cell
Assay: Side effect test, toxic reduction of asiatic acid, PrestoBlue assay
Assay type: cell-based
Settings: 12.5 μM asiatic acid dissolved in DMSO in cell culture media
Text: Side effect test of Sample 2 in colloid form at concentration of 0, 0.1, 0.15 and 0.25% w/v form was studied by considering the toxic reduction of asiatic acid in fibroblast L929 cell via PrestoBlue™ assay.

Molecule C[C@H]1[C@H](C)CC[C@]2(C(=O)O)CC[C@]3(C)C(=CC[C@@H]4[C@@]5(C)C[C@@H](O)[C@H](O)[C@@](C)(CO)[C@@H]5CC[C@]43C)[C@H]12 [asiatic acid] has a Cell viability of 5%.

Reference: US20240336748A1, “A METHOD FOR PREPARING HYALURONIC ACID GRAFTED POLY(N-ISOPROPYLACRYLAMIDE) (HA-G-PNI-PAM)” (NABSOLUTE COMPANY LIMITED, priority 2021, published 2024)
